Reference: patent US20090246292A1, “ANTIMICROBIAL FORMULATIONS COMPRISING A QUINONE AND A COPPER SALT” (priority 2006, published 2009)
Like-named read-outs stand apart in the source and are kept apart here.

Tests used:
P. acnes NCTC 737 [1] = experiment: Minimum inhibitory concentration (MIC) assay; assay type: cell-based, Propionibacterium acnes
Source text: (§1) (a) Minimum Inhibitory Concentration (MIC) Assay
(§2) The culture media were as described above.
(§3) The assays included both negative (culture medium with no micro-organisms) and positive (culture medium plus diluting solvent plus micro-organism) controls.

P. acnes NCTC 737 [2] = experiment: Minimum bactericidal concentration (MBC) assay; assay type: cell-based, Propionibacterium acnes
Protocol: (§4) (b) Minimum Bactericidal Concentration (MBC) Assay
(§5) Following incubation they were examined visually for bacterial growth.

S. aureus ATCC 29213 [3] = experiment: Minimum inhibitory concentration (MIC) assay; assay type: cell-based, Staphylococcus aureus
Source text: as §1, §2, §3

S. aureus ATCC 29213 [4] = experiment: Minimum bactericidal concentration (MBC) assay; assay type: cell-based, Staphylococcus aureus
Protocol: as §4, §5

P. acnes NCTC 737 [5] = experiment: Disc diffusion assay (DDA), also supplemented;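 also: paper disc carrying compound placed on inoculated Wilkins-Chalgren Anaerobe agar pH 6.0, with lipid or NaCl supplement where listed, anaerobic 37 °C for 72 h, inhibition zone diameter read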
Protocol: The propionibacteria were cultured and maintained on Wilkins-Chalgren Anaerobe Medium (agar and broth) at pH 6.0; all cultures were incubated anaerobically at 37° C. for 72 hours.
(d) Disc Diffusion Assay (DDA)
A sterile paper disc was impregnated with a sample of the test compound in a suitable solvent and 30 minutes allowed for the solvents to evaporate (where possible). The disc was then placed on an agar plate onto which the test micro-organism had been inoculated. The plate was then incubated under the conditions described above, following which it was examined visually for signs of bacterial growth. […] The diameter of this zone of “inhibition” was measured using a ProtoCOL™ automated zone sizer (Synbiosis, Cambridge, UK).
(f) Supplemented Disc Diffusion Assays
For assays using Propionibacterium spp. strains the supplements used in the examples below were lipid (either Tween™ 80 or triolein, both at 1% v/v) and sodium chloride (100 mM).

S. aureus ATCC 29213 [6] = experiment: Disc diffusion assay (DDA), also supplemented
P. acnes NCTC 737 [7] = experiment: Synergy disc diffusion assay (SDDA), also supplemented
S. aureus ATCC 29213 [8] = experiment: as above
Protocol: (e) Synergy Disc Diffusion Assay (SDDA)
This is a variation on the DDA method, in which two compounds are tested together for their combined antimicrobial activity.
Two test compounds A and B were placed on a single paper disc and the above described DDA procedure repeated.
(f) Supplemented Disc Diffusion Assays
For assays using S. aureus ATCC 29213 the supplements used were sodium chloride (100 mM), lipid (Tween™ 80 at 1% v/v) and horse serum (5% v/v).

[9] = copper salt alone, P. acnes NCTC 737
[10] = copper salt alone, S. aureus ATCC 29213
[11] = copper salt alone, 200 μg per disc (silicate 62 μg), 1% (v/v) Tween 80
[12] = copper salt alone, 200 μg per disc (silicate 62 μg), salt and 1% (v/v) Tween 80
[13] = copper salt alone, 200 μg per disc (silicate 62 μg), sodium chloride (100 mM)
[14] = copper salt alone, 200 μg per disc (silicate 62 μg), Tween 80 at 1% v/v
[15] = copper salt alone, 200 μg per disc (silicate 62 μg), salt and horse serum (5% v/v)
[16] = copper salt + TBHQ on one disc, 200 μg of each (silicate 62 μg), salt and lipid (1% (v/v) Tween 80)
[17] = copper salt + TBHQ on one disc, 200 μg of each (silicate 62 μg), unsupplemented
[18] = copper salt + TBHQ vs larger zone of either compound alone, unsupplemented
[19] = copper salt + TBHQ, salt and lipid (1% (v/v) Tween 80)
[20] = copper salt + TBHQ, unsupplemented
[21] = copper salt + TBHQ on one disc, 200 μg of each (silicate 62 μg), salt and serum supplements
[22] = copper salt + TBHQ, salt and serum supplements
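For SS SDDA area increase in this document: disc diffusion on Mueller-Hinton agar at pH 7.2, aerobic incubation at 37 °C lasting 19-20 h, two compounds assessed jointly for combined antimicrobial effect.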
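For SS SDDA increase in this document: disc diffusion on Mueller-Hinton agar at pH 7.2, aerobic incubation at 37 °C lasting 19-20 h, two compounds assessed jointly for combined antimicrobial effect.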
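For SS SDDA with TBHQ in this document: disc diffusion on Mueller-Hinton agar at pH 7.2, aerobic incubation at 37 °C lasting 19-20 h, two compounds assessed jointly for combined antimicrobial effect.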

Structure (SMILES): CC(=O)[O-].[Cu+] [Copper (I) acetate]
- MIC (P. acnes NCTC 737 [1]): 7.8 µg/mL
- MIC/MBC ratio (P. acnes NCTC 737 [1]): 0.25
- MBC (P. acnes NCTC 737 [2]): 31.25 µg/mL
- MIC (S. aureus ATCC 29213 [3]): >250 µg/mL
- MBC (S. aureus ATCC 29213 [4]): >250 µg/mL
- DDA (P. acnes NCTC 737 [5]): 52.04 mm
- DDA + lipid (P. acnes NCTC 737 [5]): 45.46 mm
- DDA + salt (P. acnes NCTC 737 [5]): 49.48 mm
- DDA + salt & lipid (P. acnes NCTC 737 [5]): 52.15 mm
- DDA (S. aureus ATCC 29213 [6]): 0 mm
- DDA + lipid (S. aureus ATCC 29213 [6]): 0 mm
- DDA + salt (S. aureus ATCC 29213 [6]): 0 mm
- DDA + salt & serum (S. aureus ATCC 29213 [6]): 0 mm
- SDDA area increase (P. acnes NCTC 737 [7]): 84.62%
- SDDA increase (P. acnes NCTC 737 [7]): 18.67 mm
- SDDA with TBHQ (P. acnes NCTC 737 [7]): 70.71 mm
- SL SDDA area increase (P. acnes NCTC 737 [7]): 59.77%
- SL SDDA increase (P. acnes NCTC 737 [7]): 13.77 mm
- SL SDDA with TBHQ (P. acnes NCTC 737 [7]): 65.91 mm
- SDDA area increase (S. aureus ATCC 29213 [8]): 16.25%
- SDDA increase (S. aureus ATCC 29213 [8]): 3.16 mm
- SDDA with TBHQ (S. aureus ATCC 29213 [8]): 43.58 mm
- SS SDDA area increase (S. aureus ATCC 29213 [8]): −51.82%
- SS SDDA increase (S. aureus ATCC 29213 [8]): −13.36 mm
- SS SDDA with TBHQ (S. aureus ATCC 29213 [8]): 30.32 mm

Structure (SMILES): [Cu][Br] [Copper (I) bromide]
- MIC (P. acnes NCTC 737 [1]; [9]): 15.6 µg/mL
- MIC/MBC ratio (P. acnes NCTC 737 [1]; [9]): 0.125
- MBC (P. acnes NCTC 737 [2]; [9]): 125 µg/mL
- MIC (S. aureus ATCC 29213 [3]; [10]): >250 µg/mL
- MBC (S. aureus ATCC 29213 [4]; [10]): >250 µg/mL
- DDA + lipid (P. acnes NCTC 737 [5]; [11]): 43.92 mm
- DDA + salt & lipid (P. acnes NCTC 737 [5]; [12]): 43.70 mm
- DDA + salt (P. acnes NCTC 737 [5]; [13]): 29.38 mm
- DDA + lipid (S. aureus ATCC 29213 [6]; [14]): 0 mm
- DDA + salt & serum (S. aureus ATCC 29213 [6]; [15]): 0 mm
- DDA + salt (S. aureus ATCC 29213 [6]; [13]): 0 mm
- SL SDDA with TBHQ (P. acnes NCTC 737 [7]; [16]): 56.01 mm
- SDDA with TBHQ (P. acnes NCTC 737 [7]; [17]): 54.65 mm
- SDDA increase (P. acnes NCTC 737 [7]; [18]): 15.44 mm
- SL SDDA area increase (P. acnes NCTC 737 [7]; [19]): 64.26%
- SL SDDA increase (P. acnes NCTC 737 [7]; [19]): 12.31 mm
- SDDA area increase (P. acnes NCTC 737 [7]; [20]): 94.26%
- SS SDDA with TBHQ (S. aureus ATCC 29213 [8]; [21]): 46.42 mm
- SDDA with TBHQ (S. aureus ATCC 29213 [8]; [17]): 55.37 mm
- SDDA increase (S. aureus ATCC 29213 [8]; [18]): 14.95 mm
- SS SDDA area increase (S. aureus ATCC 29213 [8]; [22]): 12.94%
- SS SDDA increase (S. aureus ATCC 29213 [8]; [22]): 2.74 mm
- SDDA area increase (S. aureus ATCC 29213 [8]; [20]): 87.65%

Structure (SMILES): [Cu+].[I-] [Copper (I) iodide]
- MIC (P. acnes NCTC 737 [1]; [9]): 7.8 µg/mL
- MIC/MBC ratio (P. acnes NCTC 737 [1]; [9]): 0.25
- MBC (P. acnes NCTC 737 [2]; [9]): 31.25 µg/mL
- MIC (S. aureus ATCC 29213 [3]; [10]): >250 µg/mL
- MBC (S. aureus ATCC 29213 [4]; [10]): >250 µg/mL
- DDA + lipid (P. acnes NCTC 737 [5]; [11]): 34.64 mm
- DDA + salt & lipid (P. acnes NCTC 737 [5]; [12]): 46.20 mm
- DDA + salt (P. acnes NCTC 737 [5]; [13]): 43.92 mm
- DDA + lipid (S. aureus ATCC 29213 [6]; [14]): 0 mm
- DDA + salt & serum (S. aureus ATCC 29213 [6]; [15]): 0 mm
- DDA + salt (S. aureus ATCC 29213 [6]; [13]): 0 mm
- SL SDDA with TBHQ (P. acnes NCTC 737 [7]; [16]): 64.77 mm
- SDDA with TBHQ (P. acnes NCTC 737 [7]; [17]): 70.08 mm
- SDDA increase (P. acnes NCTC 737 [7]; [18]): 21.48 mm
- SL SDDA area increase (P. acnes NCTC 737 [7]; [19]): 96.51%
- SL SDDA increase (P. acnes NCTC 737 [7]; [19]): 18.56 mm
- SDDA area increase (P. acnes NCTC 737 [7]; [20]): 107.92%
- SS SDDA with TBHQ (S. aureus ATCC 29213 [8]; [21]): 45.26 mm
- SDDA with TBHQ (S. aureus ATCC 29213 [8]; [17]): 52.74 mm
- SDDA increase (S. aureus ATCC 29213 [8]; [18]): 12.32 mm
- SS SDDA area increase (S. aureus ATCC 29213 [8]; [22]): 7.37%
- SS SDDA increase (S. aureus ATCC 29213 [8]; [22]): 1.58 mm
- SDDA area increase (S. aureus ATCC 29213 [8]; [20]): 70.25%

Structure (SMILES): CC(=O)[O-].CC(=O)[O-].[Cu+2] [Copper (II) acetate]
- MIC (P. acnes NCTC 737 [1]): 7.8 µg/mL
- MIC/MBC ratio (P. acnes NCTC 737 [1]): 0.25
- MBC (P. acnes NCTC 737 [2]): 31.25 µg/mL
- MIC (S. aureus ATCC 29213 [3]): >250 µg/mL
- MBC (S. aureus ATCC 29213 [4]): >250 µg/mL
- DDA (P. acnes NCTC 737 [5]): 53.61 mm
- DDA + lipid (P. acnes NCTC 737 [5]): 42.06 mm
- DDA + salt (P. acnes NCTC 737 [5]): 48.25 mm
- DDA + salt & lipid (P. acnes NCTC 737 [5]): 49.54 mm
- DDA (S. aureus ATCC 29213 [6]): 0 mm
- DDA + lipid (S. aureus ATCC 29213 [6]): 0 mm
- DDA + salt (S. aureus ATCC 29213 [6]): 0 mm
- DDA + salt & serum (S. aureus ATCC 29213 [6]): 0 mm
- SDDA area increase (P. acnes NCTC 737 [7]): 56%
- SDDA increase (P. acnes NCTC 737 [7]): 13.35 mm
- SDDA with TBHQ (P. acnes NCTC 737 [7]): 66.96 mm
- SL SDDA area increase (P. acnes NCTC 737 [7]): 64.92%
- SL SDDA increase (P. acnes NCTC 737 [7]): 14.08 mm
- SL SDDA with TBHQ (P. acnes NCTC 737 [7]): 63.62 mm
- SDDA area increase (S. aureus ATCC 29213 [8]): 1.59%
- SDDA increase (S. aureus ATCC 29213 [8]): 0.32 mm
- SDDA with TBHQ (S. aureus ATCC 29213 [8]): 40.74 mm
- SS SDDA area increase (S. aureus ATCC 29213 [8]): −57.34%
- SS SDDA increase (S. aureus ATCC 29213 [8]): −15.15 mm
- SS SDDA with TBHQ (S. aureus ATCC 29213 [8]): 28.53 mm

Structure (SMILES): O=S(=O)([O-])[O-].[Cu+2] [Copper (II) sulphate, copper (II) sulphate]
- MIC (P. acnes NCTC 737 [1]): 15.6 µg/mL
- MIC/MBC ratio (P. acnes NCTC 737 [1]): 0.5
- MBC (P. acnes NCTC 737 [2]): 31.25 µg/mL
- MIC (S. aureus ATCC 29213 [3]): 1000 μml
- MIC/MBC ratio (S. aureus ATCC 29213 [3]): 1
- MBC (S. aureus ATCC 29213 [4]): 1000 µg/mL
- (S)DDA (P. acnes NCTC 737 [5]): 51.73 (±1.48) mm
- SL (S)DDA (P. acnes NCTC 737 [5]): 51.10 (±3.17) mm
- (S)DDA (S. aureus ATCC 29213 [6]): 0 mm
- SS (S)DDA (S. aureus ATCC 29213 [6]): 0 mm
- activity of copper salt alone (in words) (S. aureus ATCC 29213 [6]): inactive
